Blank lines part the entries; values can stand above or below the substance they belong to. Ends that are not written are not given here.
Tests used:
[1] = target: T1, Human neutrophil elastase (HNE) (Homo sapiens, UniProt P08246); assay: Human neutrophil elastase inhibition assay; assay type: biochemical; conditions: 1.75 U/mL HNE, 0.6 mM N-Methoxysuccinyl-Ala-Ala-Pro-Val p-nitroanilide, 100 mM Tris buffer pH 8.0, 37 °C, absorbance 405 nm for 1 h, normalized initial velocity, mean n = 3; read-out: IC50, enzymatic activity of human neutrophil elastase
T1 construct: purchased Sigma-Aldrich or ThermoFisher Scientific (general statement only)
T1 sequence (P08246 30-267): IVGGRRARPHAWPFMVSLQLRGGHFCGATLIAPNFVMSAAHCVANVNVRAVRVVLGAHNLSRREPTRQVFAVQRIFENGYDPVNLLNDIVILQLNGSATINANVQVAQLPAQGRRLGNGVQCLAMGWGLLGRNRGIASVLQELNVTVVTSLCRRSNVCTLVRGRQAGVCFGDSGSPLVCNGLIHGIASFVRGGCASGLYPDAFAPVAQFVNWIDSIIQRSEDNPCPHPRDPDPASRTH
Procedure: Human neutrophil elastase (HNE) activity was determined by measuring the release of p-nitroanilide at 405 nm at 37 °C using N-Methoxysuccinyl-Ala-Ala-Pro-Val p-nitroanilide as substrates. Purified roseltide rT1 was incubated with 1.75 U/mL HNE and 0.6 mM substrate in 100 mM Tris buffer (pH 8.0) at 37 °C; absorbance was measured continuously for 1 h. […] The results were presented as normalized initial velocity.

PAR2-cAMP-CHO cells = assay: Glosensor cAMP assay, neutrophil elastase-stimulated cAMP accumulation; assay type: cell-based, Chinese Hamster; conditions: co-incubation of HNE with peptide; CHO-K1 co-expressing PAR2 and Glosensor cAMP biosensor; luminescence 20 min, area under the curve; n = 3
Procedure: Huh7 (human liver carcinoma cells), A549 (human lung adenocarcinoma epithelial cells) cells, and Chinese Hamster Ovary-K1 cells (CHO-K1) were cultured in Dulbecco’s Modified Eagle’s Medium (DMEM)/Ham’s F12 containing 15 mM HEPES and L-glutamine and supplemented with 10% fetal bovine serum, 100 U/mL of penicillin, and streptomycin. The cells were grown in a 5% CO2 humidified incubator at 37 °C. CHO-K1 cells were transfected with pGlosensor-20F plasmid by electroporation and selected using 500 μg/mL hygromycin. CHO-K1 cells stably expressing the pGlosensor-20F construct (cAMP-CHO) were then transfected with pCMV6-XL5 encoding PAR2 receptor (NM 005242.3) and selected using 500 μg/mL G418. Stable cell lines co-expressing both pGlosensor-20F and PAR2 receptor constructs (PAR2-cAMP-CHO) were maintained with 500 μg/mL hygromycin and 500 μg/mL G418.
Glosensor cAMP assays were performed according to the manufacturer’s instructions. […] Luminescent intensity was measured using a microplate reader (Tecan Infinite 200 Pro, Switzerland); the plate was pre-read for 30 s to establish basal luminescent level. Following treatment, luminescent levels were continuously monitored for 20 min. The results are presented as fold change relative to basal luminescent levels and were quantified using the area under the curve.

Acid stability = assay type: physicochemical; conditions: in 0.2 M HCl, 37 °C, 0-120 min, RP-UHPLC peak area as % of initial, n = 3
Procedure: 0.1 M of purified roseltide rT1 was dissolved in 0.2 M HCl or phosphate buffered saline (PBS) (control) and incubated at 37 °C. Samples were collected at various time points (0, 15, 30, 45, 60 and 120 min).

pepsin = pepsin (Sus scrofa, UniProt P00791); conditions: 0.1 M peptide, 0.2 M HCl, pepsin 50:1 (w/v), 37 °C, 0-120 min, RP-UHPLC peak area, n = 3
pepsin, sequence (P00791 60-385): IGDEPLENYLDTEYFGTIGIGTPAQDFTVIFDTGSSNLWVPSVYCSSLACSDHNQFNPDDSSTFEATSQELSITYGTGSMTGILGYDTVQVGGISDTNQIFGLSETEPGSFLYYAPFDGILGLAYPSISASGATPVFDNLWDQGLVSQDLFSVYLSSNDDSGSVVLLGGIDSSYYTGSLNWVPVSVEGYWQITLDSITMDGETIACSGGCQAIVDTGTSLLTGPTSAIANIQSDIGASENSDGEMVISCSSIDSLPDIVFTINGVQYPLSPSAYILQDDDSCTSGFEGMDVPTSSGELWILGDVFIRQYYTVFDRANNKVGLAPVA
Procedure: (§1) 0.1 M of purified roseltide rT1 was dissolved in 100 mM Tris buffer (pH 8) and incubated with trypsin (Catalog number: T1426, Roche Applied Science, US) in a 50:1 (w/v) ratio at 37 °C. 0.1 M of purified roseltide rT1 was dissolved in 0.2 M HCl and incubated with pepsin (Catalog number: 03117901001, Roche Applied Science, US) in a 50:1 (w/v) ratio at 37 °C. […] Samples were collected at various time points (0, 15, 30, 45, 60 and 120 min).
(§2) All collected samples from various stability assays were analyzed by RP-UHPLC with a linear gradient of mobile phase A (0.05% TFA/H2O) and mobile phase B (0.05% TFA/ACN) on C18 column (3.6 μm particle size; 2.1 mm internal diameter; 10 cm length) (Phenomenex, US). The resulting peaks were collected and the identified by MALDI-TOF MS. The results were expressed as percentage of initial concentration using the peak area of the UHPLC profile.

trypsin = trypsin (Bos taurus, UniProt P00760); conditions: 0.1 M peptide, 100 mM Tris buffer pH 8, trypsin 50:1 (w/v), 37 °C, 0-120 min, RP-UHPLC peak area, n = 3
trypsin, sequence (P00760 24-246): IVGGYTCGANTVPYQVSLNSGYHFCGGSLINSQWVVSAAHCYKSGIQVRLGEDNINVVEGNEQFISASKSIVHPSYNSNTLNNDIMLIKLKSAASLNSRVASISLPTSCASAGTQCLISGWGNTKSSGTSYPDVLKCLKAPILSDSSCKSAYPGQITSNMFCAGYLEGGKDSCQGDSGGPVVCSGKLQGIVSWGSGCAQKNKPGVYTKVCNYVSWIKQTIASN
Procedure: as §1, §2

Human serum stability = assay type: in vitro ADME; conditions: 0.1 M peptide, 25% human serum in DMEM without phenol red, 37 °C, 0, 24 and 48 h, ethanol precipitation, RP-UHPLC peak area, n = 3
Procedure: 0.1 M of purified roseltide rT1 was prepared in 25% human serum in DMEM medium without phenol red. The test samples were incubated at 37 °C. DALK was used as a positive control. Samples were collected at various time points (0, 24 and 48 h). The collected samples were subjected to protein precipitation with 100% ethanol and centrifugation at 180,000 g for 5 min at 4 °C. The supernatant was collected for analysis.

[2] = target: human neutrophil elastase (human) (UniProt P08246)

Substance: CIPRGGICLVALSGCCNSPGCIFGICA (also: bicyclic or more (positions not given here)) [roseltide rT1, 27-residue cystine-knot peptide purified from Hibiscus sabdariffa calyces; disulfides Cys1-Cys16, Cys8-Cys21, Cys15-Cys26]
- IC50 [1]: 470 nM
- effect on human neutrophil elastase-stimulated cAMP accumulation (PAR2-cAMP-CHO cells): significantly suppressed
- acid stability (resistance against degradation) (Acid stability): resistant
- pepsin stability (resistance against degradation) (pepsin): resistant
- trypsin stability (resistance against degradation) (trypsin): resistant
- human serum stability (resistance against degradation) (Human serum stability): resistant

- inhibition of the enzymatic activity of human neutrophil elastase (release of p-nitroanilide from N-methoxysuccinyl-Ala-Ala-Pro-Val p-nitroanilide, 405 nm, 37 °C, 100 mM Tris pH 8.0), IC50 [2]: 0.47 μM
Substance: roseltide rT1 (peptide)
